Results published in PubChem BioAssay (NCI).
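Compound exposure: 48 hours, 5 concentrations, 96-well plates. At the GI50, growth is halved. At the TGI there is no net growth.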

Experiments:
Experiment in all cases: NCI-60 cell line screen, 48 h
HCT-116 colon = system: HCT-116 colon
OVCAR-8 ovarian = system: OVCAR-8 ovarian
786-0 renal = system: 786-0 renal
BT-549 breast = system: BT-549 breast
UACC-257 melanoma = system: UACC-257 melanoma
SF-268 CNS = system: SF-268 CNS
IGROV1 ovarian = system: IGROV1 ovarian
KM12 colon = system: KM12 colon
OVCAR-5 ovarian = system: OVCAR-5 ovarian
MDA-N = system: MDA-N
LOX IMVI melanoma = system: LOX IMVI melanoma

C[C@@H]1CC[C@H]2C(COC/C=C/COCC3=C(C(F)(F)F)O[C@@H]4O[C@@]5(C)CC[C@H]6[C@H](C)CC[C@@H]3[C@@]46OO5)=C(C(F)(F)F)O[C@@H]3O[C@@]4(C)CC[C@@H]1[C@]32OO4
GI50 (HCT-116 colon): < 0.01 µM | TGI (HCT-116 colon): > 100 µM | GI50 (OVCAR-8 ovarian): < 0.0206 µM | TGI (OVCAR-8 ovarian): > 32.6 µM | TGI (786-0 renal): > 100 µM | GI50 (BT-549 breast): 0.0644 µM | TGI (BT-549 breast): > 100 µM | GI50 (UACC-257 melanoma): 0.0538 µM | TGI (UACC-257 melanoma): 11.8 µM | GI50 (SF-268 CNS): 0.0846 µM | TGI (SF-268 CNS): > 100 µM | GI50 (IGROV1 ovarian): 1.27 µM | TGI (IGROV1 ovarian): 98.2 µM | GI50 (KM12 colon): < 0.01 µM | TGI (KM12 colon): 0.0328 µM | GI50 (OVCAR-5 ovarian): 0.0175 µM | TGI (OVCAR-5 ovarian): > 100 µM

CC(C)(C)C1CCC2(CC1)CCN(CCCN1CCOCC1)CC2
TGI (HCT-116 colon): > 59.7 µM | TGI (OVCAR-8 ovarian): > 100 µM | TGI (786-0 renal): 51 µM | TGI (BT-549 breast): > 100 µM | TGI (UACC-257 melanoma): 31.1 µM | TGI (SF-268 CNS): > 100 µM | TGI (IGROV1 ovarian): > 100 µM | TGI (KM12 colon): > 100 µM | TGI (MDA-N): 89.9 µM | TGI (LOX IMVI melanoma): > 52.3 µM | TGI (OVCAR-5 ovarian): > 100 µM

Cn1cnc([N+](=O)[O-])c1SCC(=O)O
TGI (HCT-116 colon): > 100 µM | TGI (OVCAR-8 ovarian): > 100 µM | TGI (786-0 renal): > 100 µM | TGI (BT-549 breast): > 100 µM | TGI (UACC-257 melanoma): > 100 µM | TGI (SF-268 CNS): > 100 µM | TGI (IGROV1 ovarian): > 100 µM | TGI (KM12 colon): > 100 µM | TGI (MDA-N): > 100 µM | TGI (LOX IMVI melanoma): > 100 µM | TGI (OVCAR-5 ovarian): > 100 µM

COc1cc2ccc1-c1cc(ccc1O)CC1c3cc4c(cc3CCN1C)Oc1c(OC)cc3c(c1O4)C(C2)N(C)CC3 (centres undefined)
TGI (HCT-116 colon): 2.89 µM | TGI (786-0 renal): 3.15 µM | TGI (UACC-257 melanoma): 3.23 µM | TGI (SF-268 CNS): 3.52 µM | TGI (IGROV1 ovarian): 4.35 µM | TGI (KM12 colon): 3.32 µM | TGI (LOX IMVI melanoma): 3.75 µM | TGI (OVCAR-5 ovarian): 8.86 µM

CC(C)CNc1nc(N)[nH]c(=O)c1NC=O
TGI (HCT-116 colon): > 100 µM | TGI (OVCAR-8 ovarian): > 100 µM | TGI (786-0 renal): > 100 µM | TGI (BT-549 breast): > 100 µM | TGI (UACC-257 melanoma): > 100 µM | TGI (SF-268 CNS): > 100 µM | TGI (IGROV1 ovarian): > 100 µM | TGI (KM12 colon): > 100 µM | TGI (MDA-N): > 100 µM | TGI (LOX IMVI melanoma): > 100 µM | TGI (OVCAR-5 ovarian): > 100 µM

O=C(c1cc(Br)ccc1O)c1cc(Br)ccc1O
TGI (HCT-116 colon): 29.4 µM | TGI (OVCAR-8 ovarian): 32 µM | TGI (786-0 renal): 30.6 µM | TGI (BT-549 breast): 33.9 µM | TGI (UACC-257 melanoma): 29.1 µM | TGI (SF-268 CNS): 42.4 µM | TGI (IGROV1 ovarian): 27.8 µM | TGI (KM12 colon): 30.8 µM | TGI (MDA-N): 29.5 µM | TGI (LOX IMVI melanoma): 36.8 µM | TGI (OVCAR-5 ovarian): 33.3 µM

Oc1cc(O)cc(/C=C/c2ccc(O)c(O)c2)c1
TGI (HCT-116 colon): 20.9 µM | TGI (OVCAR-8 ovarian): > 100 µM | TGI (UACC-257 melanoma): > 100 µM | TGI (SF-268 CNS): 56.3 µM | TGI (IGROV1 ovarian): 32.1 µM | TGI (KM12 colon): 11.2 µM | TGI (LOX IMVI melanoma): > 41.7 µM | TGI (OVCAR-5 ovarian): 20.7 µM

O=C(O)c1ccccn1
TGI (HCT-116 colon): > 100 µM | TGI (OVCAR-8 ovarian): > 100 µM | TGI (786-0 renal): > 100 µM | TGI (BT-549 breast): > 100 µM | TGI (UACC-257 melanoma): > 100 µM | TGI (SF-268 CNS): > 100 µM | TGI (IGROV1 ovarian): > 100 µM | TGI (KM12 colon): > 100 µM | TGI (MDA-N): > 100 µM | TGI (OVCAR-5 ovarian): > 100 µM

CN(C)c1ccc(C2CC(=O)C(C#N)=C(c3ccccc3)NN2C)cc1 (centres undefined)
TGI (HCT-116 colon): > 100 µM | TGI (UACC-257 melanoma): > 100 µM | TGI (SF-268 CNS): > 100 µM | TGI (KM12 colon): > 100 µM | TGI (LOX IMVI melanoma): > 100 µM | TGI (OVCAR-5 ovarian): > 100 µM

CN(C)[C@@H]1C(=O)C(C(=O)NCNCCCC(=O)O)=C(O)[C@@]2(O)C(=O)C3=C(O)c4c(O)cccc4[C@@](C)(O)[C@H]3C[C@@H]12
TGI (HCT-116 colon): > 100 µM | TGI (OVCAR-8 ovarian): > 100 µM | TGI (786-0 renal): > 100 µM | TGI (UACC-257 melanoma): > 100 µM | TGI (SF-268 CNS): > 100 µM | TGI (IGROV1 ovarian): > 100 µM | TGI (KM12 colon): > 100 µM | TGI (LOX IMVI melanoma): > 100 µM | TGI (OVCAR-5 ovarian): > 100 µM

N=C(N)c1ccc(-c2ccc(-c3ccc(Cl)cn3)s2)cc1
GI50 (UACC-257 melanoma): 1.8 µM | TGI (UACC-257 melanoma): 3.62 µM | GI50 (SF-268 CNS): 9.67 µM | TGI (SF-268 CNS): 39.3 µM | GI50 (OVCAR-5 ovarian): 1.58 µM | TGI (OVCAR-5 ovarian): 3.04 µM

CN(C)c1ccc2nc3c(C(=O)O)cc(=O)c(O)c-3oc2c1
TGI (HCT-116 colon): 80.1 µM | TGI (OVCAR-8 ovarian): > 100 µM | TGI (786-0 renal): 82.7 µM | TGI (BT-549 breast): 42.8 µM | TGI (UACC-257 melanoma): 32.3 µM | TGI (SF-268 CNS): > 100 µM | TGI (IGROV1 ovarian): > 100 µM | TGI (KM12 colon): > 100 µM | TGI (MDA-N): 55.5 µM | TGI (LOX IMVI melanoma): > 100 µM | TGI (OVCAR-5 ovarian): > 100 µM
